A value given as a limit tells only on which side of the number the result lay.

The target in this assay is DCAF15 and RRM2 domain in RBM39 (Homo sapiens (Human), UniProt Q14498+Q66K64). The assay is described as follows: TR-FRET biochemical assay, DCAF15 activity (recruitment of RBM39 RRM2 domain to DCAF15). The assay is classed as binding. Conditions: TR-FRET 520/490 nm ratio; biotinylated DCAF15 200 nM, Bodipy-FL RBM39 RRM2 200 nM, Tb-streptavidin 2 nM. The procedure: Increasing concentrations of compounds were added to pre-mixed biotinylated DCAF15 at 200 nM, Bodipy-FL-labelled RRM2 domain in RBM39 at 200 nM, and terbium (Tb)-coupled streptavidin at 2 nM (Invitrogen) in 384-well microplates in a buffer containing 50 mM Tris pH 7.5, 100 mM NaCl, 0.1% pluronic acid and 2% DMSO. Before TR-FRET measurements were conducted, the reactions were incubated for 15 min at room temperature. After excitation of terbium (Tb) fluorescence at 337 nm, emission at 490 nm (Tb) and 520 nm (Bodipy-FL) were recorded with a 70 μs delay to reduce background fluorescence and the reaction was followed over 1 h by recording 60 technical replicates of each data point using a PHERAstar FS microplate reader (BMG Labtech). The TR-FRET signal of each data point was extracted by calculating the 520/490 nm ratio. Data were analyzed with GraphPad Prism 7.
DCAF15 and RRM2 domain in RBM39, sequence (Q66K64 whole entry, the tested form may be a part): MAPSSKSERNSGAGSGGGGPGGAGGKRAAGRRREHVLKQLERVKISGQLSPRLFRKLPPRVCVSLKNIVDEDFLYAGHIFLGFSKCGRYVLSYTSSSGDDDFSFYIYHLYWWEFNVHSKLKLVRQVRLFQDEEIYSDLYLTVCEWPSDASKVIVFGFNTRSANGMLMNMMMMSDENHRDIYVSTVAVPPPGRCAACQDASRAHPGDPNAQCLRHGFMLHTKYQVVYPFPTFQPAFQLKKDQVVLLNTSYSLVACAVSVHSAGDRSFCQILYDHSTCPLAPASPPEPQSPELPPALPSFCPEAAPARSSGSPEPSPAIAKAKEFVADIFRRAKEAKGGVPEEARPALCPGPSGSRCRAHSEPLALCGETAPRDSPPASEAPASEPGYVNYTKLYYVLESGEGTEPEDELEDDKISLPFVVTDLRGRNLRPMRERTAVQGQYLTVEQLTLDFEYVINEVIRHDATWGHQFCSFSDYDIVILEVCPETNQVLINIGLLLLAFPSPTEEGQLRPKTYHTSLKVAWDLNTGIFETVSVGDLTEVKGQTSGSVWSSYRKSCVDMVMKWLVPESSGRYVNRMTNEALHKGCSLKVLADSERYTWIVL
DCAF15 and RRM2 domain in RBM39, sequence (Q14498 250-328): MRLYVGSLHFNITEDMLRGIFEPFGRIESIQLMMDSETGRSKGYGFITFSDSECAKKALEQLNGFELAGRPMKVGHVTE
DCAF15 and RRM2 domain in RBM39, sequence (Q16531 whole entry partner, the tested form may be a part): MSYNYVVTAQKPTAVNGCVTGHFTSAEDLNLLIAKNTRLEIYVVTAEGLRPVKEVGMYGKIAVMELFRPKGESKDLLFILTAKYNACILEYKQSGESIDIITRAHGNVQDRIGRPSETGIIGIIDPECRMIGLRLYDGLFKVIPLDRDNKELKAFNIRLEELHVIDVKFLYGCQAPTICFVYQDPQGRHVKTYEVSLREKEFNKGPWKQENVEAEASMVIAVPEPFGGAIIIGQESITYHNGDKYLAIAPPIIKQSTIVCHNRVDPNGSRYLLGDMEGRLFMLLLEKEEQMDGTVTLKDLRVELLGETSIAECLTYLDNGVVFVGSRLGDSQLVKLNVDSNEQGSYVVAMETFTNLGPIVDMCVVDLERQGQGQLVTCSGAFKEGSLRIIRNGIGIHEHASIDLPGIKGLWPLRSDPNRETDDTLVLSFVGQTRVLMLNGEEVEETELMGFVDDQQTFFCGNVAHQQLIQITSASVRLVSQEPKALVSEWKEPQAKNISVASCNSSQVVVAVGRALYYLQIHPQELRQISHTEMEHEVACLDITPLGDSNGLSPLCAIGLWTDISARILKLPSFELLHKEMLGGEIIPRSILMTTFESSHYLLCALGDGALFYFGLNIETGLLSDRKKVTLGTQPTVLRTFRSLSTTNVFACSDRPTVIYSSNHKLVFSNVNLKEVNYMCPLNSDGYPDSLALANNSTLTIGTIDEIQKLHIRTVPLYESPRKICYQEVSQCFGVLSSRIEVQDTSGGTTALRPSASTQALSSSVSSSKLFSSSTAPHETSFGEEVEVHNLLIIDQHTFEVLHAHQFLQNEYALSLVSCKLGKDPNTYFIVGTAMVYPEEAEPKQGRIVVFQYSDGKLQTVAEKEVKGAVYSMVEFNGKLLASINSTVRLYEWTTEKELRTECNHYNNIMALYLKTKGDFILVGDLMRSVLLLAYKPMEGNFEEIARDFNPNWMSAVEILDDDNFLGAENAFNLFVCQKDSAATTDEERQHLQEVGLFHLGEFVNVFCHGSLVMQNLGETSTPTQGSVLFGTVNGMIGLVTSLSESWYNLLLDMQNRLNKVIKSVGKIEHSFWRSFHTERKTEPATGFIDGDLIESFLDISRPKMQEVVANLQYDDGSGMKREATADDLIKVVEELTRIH
`Cc1cccc(S(=O)(=O)Nc2ccc(C)c3c(C#N)c[nH]c23)c1`: the EC50 (in general, the concentration giving half of the maximal effect) was 1 to 10 µM.
Next, `Cc1ccc(NS(=O)(=O)c2cccc(C(F)(F)F)c2)c2[nH]cc(C#N)c12`: 1 to 10 µM.
`Cc1ccc(NS(=O)(=O)c2cccc([N+](=O)[O-])c2)c2[nH]cc(C#N)c12`: the EC50 lay in the range of 1 to 10 µM.
For the compound `Cc1ccc(NS(=O)(=O)c2cccc(N)c2)c2[nH]cc(C#N)c12`, the EC50 lay in the range of 1 to 10 µM.
Next, `CNC(=O)c1cccc(S(=O)(=O)Nc2ccc(C)c3c(C#N)c[nH]c23)c1`: 1 to 10 µM.
Next, `COC(=O)c1cccc(S(=O)(=O)Nc2ccc(C)c3c(C#N)c[nH]c23)c1`: 1 to 10 µM; `Cc1ccc(NS(=O)(=O)c2ccc(C#N)cc2)c2[nH]cc(C#N)c12`: 1 to 10 µM.
In the case of `Cc1ccc(NS(=O)(=O)c2ccccc2[N+](=O)[O-])c2[nH]cc(C#N)c12`, the EC50 was > 10 µM.
Next, `Cc1ccc(NS(=O)(=O)c2ccc(F)cc2F)c2[nH]cc(C#N)c12`: 1 to 10 µM.
Next, `COC(=O)c1ccc(S(=O)(=O)Nc2ccc(C)c3c(C#N)c[nH]c23)cc1`: 1 to 10 µM; `Cc1ccc(NS(=O)(=O)c2ccc([N+](=O)[O-])cc2)c2[nH]cc(C#N)c12`: 1 to 10 µM; `Cc1ccc(NS(=O)(=O)c2cccc(C#N)c2)c2[nH]cc(C=O)c12`: 1 to 10 µM.
Next, `Cc1ccc(NS(=O)(=O)c2cccc(C#N)c2)c2[nH]ccc12`: > 10 µM.
In the case of `CNC(=O)c1c[nH]c2c(NS(=O)(=O)c3cccc(C#N)c3)ccc(C)c12`, the 50% effective concentration (EC50) is > 10 µM.
In the case of `N#Cc1cccc(S(=O)(=O)Nc2ccc(-c3ccccc3)c3c(C#N)c[nH]c23)c1`, the concentration giving a half-maximal response (EC50) is > 10 µM.
On to `O=S(=O)(Nc1ncnc2[nH]ccc12)c1ccccc1`, for which the EC50 is > 10 µM.
Turning to `Cc1ccc(NS(=O)(=O)c2ccccc2OC(F)(F)F)c2[nH]cc(C#N)c12`, the half-maximal effective concentration (EC50) is > 10 µM.
`Cc1ccccc1S(=O)(=O)Nc1ccc(C)c2c(C#N)c[nH]c12`: the EC50 was > 10 µM.
With `Cc1ccc(NS(=O)(=O)c2ccccc2C(F)(F)F)c2[nH]cc(C#N)c12`, the EC50 is > 10 µM.
Next, `Cc1ccc(NS(=O)(=O)c2ccccc2Br)c2[nH]cc(C#N)c12`: > 10 µM; `Cc1ccc(NS(=O)(=O)c2ccccc2)c2[nH]cc(C#N)c12`: 1 to 10 µM; `Cc1ccc(NS(C)(=O)=O)c2[nH]cc(C#N)c12`: > 10 µM.
For `CC(=O)Nc1ccc(C)c2c(C#N)c[nH]c12`, the EC50 was > 10 µM.
In the case of `N#Cc1cccc(S(=O)(=O)Nc2cc(Cl)cc3cc[nH]c23)c1`, the EC50 was > 10 µM.
For the compound `N#Cc1cccc(S(=O)(=O)Nc2cc(F)cc3c2NC(=O)C3)c1`, the 50% effective concentration (EC50) was > 10 µM.
Next, `Cc1ccc(NC(=O)c2cccc(C#N)c2)c2[nH]cc(C#N)c12`: > 10 µM; `Cc1ccc(NS(=O)(=O)c2cccc(C#N)c2)c2[nH]cc(Cl)c12`: 1 to 10 µM.
Regarding `Cc1ccc(NS(=O)(=O)c2cccc(C#N)c2)c2[nH]cc(Br)c12`, the EC50 lay in the range of 1 to 10 µM.
For the compound `N#Cc1cccc(S(=O)(=O)Nc2cc(Cl)cc3c(Br)c[nH]c23)c1`, the concentration giving a half-maximal response (EC50) was > 10 µM.
Next, `N#Cc1cccc(S(=O)(=O)Nc2ccc3c(C#N)c[nH]c3c2)c1`: > 10 µM; `N#Cc1cccc(S(=O)(=O)Nc2cccc3c(C#N)c[nH]c23)c1`: > 10 µM; `CCOC(=O)c1cc2cc(NS(=O)(=O)c3cccc(C#N)c3)ccc2[nH]1`: > 10 µM.
Next, `N#Cc1cccc(S(=O)(=O)Nc2ncnc3[nH]ccc23)c1`: > 10 µM; `N#Cc1cccc(S(=O)(=O)Nc2ncnc3[nH]cc(Cl)c23)c1`: > 10 µM.
Turning to `N#Cc1cccc(S(=O)(=O)Nc2cccn3ncnc23)c1`, the concentration giving a half-maximal response (EC50) was > 10 µM.
Consider `N#Cc1cccc(S(=O)(=O)Nc2cc(-c3ccccc3)cc3c(C#N)c[nH]c23)c1`, for which the EC50 is > 10 µM.
As for `N#Cc1cccc(S(=O)(=O)Nc2cc(-c3ccccc3)cc3cc[nH]c23)c1`, the 50% effective concentration (EC50) is > 10 µM.
Next, `COCCNc1ccc(S(=O)(=O)Nc2ccc(C)c3c(C#N)c[nH]c23)cc1C#N`: 1 to 10 µM; `N#Cc1cccc(S(=O)(=O)Nc2ccc(-c3ccccc3)c3cc[nH]c23)c1`: > 10 µM; `N#Cc1cccc(S(=O)(=O)Nc2cccc3c2CNC3=O)c1`: > 10 µM.
Consider `CCOC(=O)c1cc2c(C)ccc(NS(=O)(=O)c3cccc(C#N)c3)c2[nH]1`, for which the EC50 is > 10 µM.
In the case of `N#Cc1cccc(S(=O)(=O)Nc2cccc(C(N)=O)c2N)c1`, the 50% effective concentration (EC50) is > 10 µM.
Next, `N#Cc1cccc(S(=O)(=O)Nc2ccc3[nH]cc(C#N)c3c2)c1`: > 10 µM; `N#Cc1cccc(S(=O)(=O)Nc2cccc3c(Cl)n[nH]c23)c1`: > 10 µM.

These data come from patent publication US11807606B2, “Sulfonamide derivatives for protein degradation” (DANA-FARBER CANCER INSTITUTE, INC., priority 2018, dated 2023).
